Reference: PMC3344384 (Chemistry & biology, 2011)

Target: T1, SENP1 (Homo sapiens, UniProt Q9P0U3)
T1 sequence (Q9P0U3 1-644): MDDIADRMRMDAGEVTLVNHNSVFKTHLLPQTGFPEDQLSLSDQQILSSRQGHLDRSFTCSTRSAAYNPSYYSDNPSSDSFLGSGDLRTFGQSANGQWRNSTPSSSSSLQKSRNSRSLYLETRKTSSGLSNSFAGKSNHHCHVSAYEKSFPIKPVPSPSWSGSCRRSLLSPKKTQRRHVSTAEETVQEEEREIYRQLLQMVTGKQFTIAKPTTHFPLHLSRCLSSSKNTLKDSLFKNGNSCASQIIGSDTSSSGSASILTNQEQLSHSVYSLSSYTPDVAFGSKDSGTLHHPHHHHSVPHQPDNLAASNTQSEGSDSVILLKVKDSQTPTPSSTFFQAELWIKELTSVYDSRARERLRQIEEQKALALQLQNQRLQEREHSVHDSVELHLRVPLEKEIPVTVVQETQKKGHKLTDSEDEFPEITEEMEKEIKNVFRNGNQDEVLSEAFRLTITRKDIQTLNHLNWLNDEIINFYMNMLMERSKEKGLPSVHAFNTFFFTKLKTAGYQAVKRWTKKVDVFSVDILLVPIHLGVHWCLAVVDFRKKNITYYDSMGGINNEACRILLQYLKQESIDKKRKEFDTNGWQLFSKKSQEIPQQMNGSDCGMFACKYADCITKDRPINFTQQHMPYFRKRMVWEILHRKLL
Assay: SUMO1-AMC assay, SENP1
Type: biochemical
Details: SUMO1-AMC substrate

| Structure (SMILES) | inhibition of SENP1 |
| --- | --- |
| OCCN1CCN(CCC=C2c3ccccc3Sc3ccc(C(F)(F)F)cc32)CC1 [Flupenthixol, flupenthixol] | low level of inhibition |
| O=c1[nH]c2ccccc2n1C1CCN(CCCC(c2ccc(F)cc2)c2ccc(F)cc2)CC1 [Pimozide, pimozide] | low level of inhibition |
| CN1CCN(CCCN2c3ccccc3Sc3ccc(C(F)(F)F)cc32)CC1 [Trifluoperazine, trifluoperazine] | low level of inhibition |
| CC(C)(Sc1ccc(CCN(CCCCC2CCCCC2)C(=O)NC2CCCCC2)cc1)C(=O)O [GW7647] | low level of inhibition |

Target: T2, UCH-L1 (Homo sapiens, UniProt P09936)
T2 sequence (P09936 1-223): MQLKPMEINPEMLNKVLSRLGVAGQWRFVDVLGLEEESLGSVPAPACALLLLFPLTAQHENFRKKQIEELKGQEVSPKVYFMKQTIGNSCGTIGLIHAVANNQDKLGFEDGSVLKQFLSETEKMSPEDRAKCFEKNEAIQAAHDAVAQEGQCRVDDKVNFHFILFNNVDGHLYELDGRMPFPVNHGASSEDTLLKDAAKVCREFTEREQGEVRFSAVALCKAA
Assay: Ub-Rho assay, UCH-L1
Type: biochemical
Details: not given

| Structure (SMILES) | IC50 [µM] |
| --- | --- |
| OCCN1CCN(CCC=C2c3ccccc3Sc3ccc(C(F)(F)F)cc32)CC1 [Flupenthixol, flupenthixol] | > 500 |
| O=c1[nH]c2ccccc2n1C1CCN(CCCC(c2ccc(F)cc2)c2ccc(F)cc2)CC1 [Pimozide, pimozide] | > 500 |
| CN1CCN(CCCN2c3ccccc3Sc3ccc(C(F)(F)F)cc32)CC1 [Trifluoperazine, trifluoperazine] | > 500 |
| CC(C)(Sc1ccc(CCN(CCCCC2CCCCC2)C(=O)NC2CCCCC2)cc1)C(=O)O [GW7647] | > 200 |

Target: T3, USP2 (Homo sapiens, UniProt O75604)
T3 sequence (O75604 1-605): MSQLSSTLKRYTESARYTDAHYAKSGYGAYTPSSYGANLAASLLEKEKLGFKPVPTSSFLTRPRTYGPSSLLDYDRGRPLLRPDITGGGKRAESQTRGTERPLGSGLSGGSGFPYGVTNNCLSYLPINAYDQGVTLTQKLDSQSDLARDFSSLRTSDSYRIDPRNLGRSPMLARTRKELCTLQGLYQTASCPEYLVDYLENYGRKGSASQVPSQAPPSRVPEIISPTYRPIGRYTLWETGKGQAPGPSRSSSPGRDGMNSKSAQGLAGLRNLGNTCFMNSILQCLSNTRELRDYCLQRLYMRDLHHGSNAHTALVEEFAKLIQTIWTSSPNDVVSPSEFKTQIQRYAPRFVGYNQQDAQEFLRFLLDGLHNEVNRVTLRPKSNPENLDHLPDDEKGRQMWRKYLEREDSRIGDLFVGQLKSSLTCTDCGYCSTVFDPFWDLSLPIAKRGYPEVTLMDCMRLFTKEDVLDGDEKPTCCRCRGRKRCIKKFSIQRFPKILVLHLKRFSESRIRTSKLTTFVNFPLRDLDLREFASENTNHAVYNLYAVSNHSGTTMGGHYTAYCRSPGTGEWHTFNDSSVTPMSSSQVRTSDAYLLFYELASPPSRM
Assay: K63-linked diubiquitin cleavage assay, USP2
Details: not given

| Structure (SMILES) | IC50 [µM] |
| --- | --- |
| CC(C)(Sc1ccc(CCN(CCCCC2CCCCC2)C(=O)NC2CCCCC2)cc1)C(=O)O [GW7647] | > 114 |

Same assay, conditions: K63-linked diubiquitin substrate

| Structure (SMILES) | IC50 for USP2, fold higher than that for USP1/UAF1 |
| --- | --- |
| CC(C)(Sc1ccc(CCN(CCCCC2CCCCC2)C(=O)NC2CCCCC2)cc1)C(=O)O [GW7647] | more than 23 fold |

Same assay, conditions: K63-linked diubiquitin substrate; NI = no significant inhibition at 114 μM

| Structure (SMILES) | IC50 USP2 |
| --- | --- |
| OCCN1CCN(CCC=C2c3ccccc3Sc3ccc(C(F)(F)F)cc32)CC1 [Flupenthixol, flupenthixol] | no inhibition |
| O=c1[nH]c2ccccc2n1C1CCN(CCCC(c2ccc(F)cc2)c2ccc(F)cc2)CC1 [Pimozide, pimozide] | No inhibition |
| CN1CCN(CCCN2c3ccccc3Sc3ccc(C(F)(F)F)cc32)CC1 [Trifluoperazine, trifluoperazine] | no inhibition |

Target: T4, caspase-1 (Homo sapiens, UniProt P29466)
T4 sequence (P29466 120-297 limits assumed): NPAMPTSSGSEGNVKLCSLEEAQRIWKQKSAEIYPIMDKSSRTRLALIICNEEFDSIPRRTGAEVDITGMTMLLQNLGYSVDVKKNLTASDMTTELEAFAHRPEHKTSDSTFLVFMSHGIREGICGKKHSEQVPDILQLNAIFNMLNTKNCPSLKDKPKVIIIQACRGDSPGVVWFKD
T4 sequence (P29466 317-404 limits assumed): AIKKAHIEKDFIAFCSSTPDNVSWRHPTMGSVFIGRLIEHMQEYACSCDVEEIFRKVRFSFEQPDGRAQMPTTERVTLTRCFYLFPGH
Assay: cysteine protease selectivity, caspase-1
Type: biochemical
Details: not given

| Structure (SMILES) | IC50 [µM] |
| --- | --- |
| OCCN1CCN(CCC=C2c3ccccc3Sc3ccc(C(F)(F)F)cc32)CC1 [Flupenthixol, flupenthixol] | > 250 |
| O=c1[nH]c2ccccc2n1C1CCN(CCCC(c2ccc(F)cc2)c2ccc(F)cc2)CC1 [Pimozide, pimozide] | > 250 |
| CN1CCN(CCCN2c3ccccc3Sc3ccc(C(F)(F)F)cc32)CC1 [Trifluoperazine, trifluoperazine] | > 250 |
| CC(C)(Sc1ccc(CCN(CCCCC2CCCCC2)C(=O)NC2CCCCC2)cc1)C(=O)O [GW7647] | 42 |

Target: T5, USP5 (Homo sapiens, UniProt P45974)
T5 sequence (P45974 1-858): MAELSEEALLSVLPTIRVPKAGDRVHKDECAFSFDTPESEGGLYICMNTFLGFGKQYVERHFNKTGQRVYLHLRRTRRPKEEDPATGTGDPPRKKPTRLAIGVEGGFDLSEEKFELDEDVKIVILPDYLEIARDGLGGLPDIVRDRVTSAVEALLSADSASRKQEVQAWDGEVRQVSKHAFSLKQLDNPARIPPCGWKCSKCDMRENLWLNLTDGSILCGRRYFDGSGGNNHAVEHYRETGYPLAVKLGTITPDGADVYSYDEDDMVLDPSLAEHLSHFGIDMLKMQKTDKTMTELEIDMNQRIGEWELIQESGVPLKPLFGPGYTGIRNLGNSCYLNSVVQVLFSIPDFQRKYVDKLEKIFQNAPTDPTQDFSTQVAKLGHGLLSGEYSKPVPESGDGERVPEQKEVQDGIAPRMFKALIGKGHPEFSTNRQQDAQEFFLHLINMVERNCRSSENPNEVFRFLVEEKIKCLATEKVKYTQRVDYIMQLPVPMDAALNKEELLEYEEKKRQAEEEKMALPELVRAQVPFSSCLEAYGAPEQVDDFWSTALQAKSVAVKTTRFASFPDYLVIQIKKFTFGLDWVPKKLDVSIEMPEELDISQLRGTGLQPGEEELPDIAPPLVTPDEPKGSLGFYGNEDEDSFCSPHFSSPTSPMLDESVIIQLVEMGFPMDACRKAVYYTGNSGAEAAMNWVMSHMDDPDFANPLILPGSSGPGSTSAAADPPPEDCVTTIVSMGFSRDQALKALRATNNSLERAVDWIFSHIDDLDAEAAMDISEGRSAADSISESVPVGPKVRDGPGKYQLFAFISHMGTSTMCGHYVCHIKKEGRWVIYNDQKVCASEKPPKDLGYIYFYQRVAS
Assay: K63-linked diubiquitin cleavage assay, USP5
Details: K63-linked diubiquitin substrate; NI = no significant inhibition at 114 μM

| Structure (SMILES) | IC50 USP5 |
| --- | --- |
| OCCN1CCN(CCC=C2c3ccccc3Sc3ccc(C(F)(F)F)cc32)CC1 [Flupenthixol, flupenthixol] | no inhibition |
| O=c1[nH]c2ccccc2n1C1CCN(CCCC(c2ccc(F)cc2)c2ccc(F)cc2)CC1 [Pimozide, pimozide] | No inhibition |
| CN1CCN(CCCN2c3ccccc3Sc3ccc(C(F)(F)F)cc32)CC1 [Trifluoperazine, trifluoperazine] | no inhibition |
| CC(C)(Sc1ccc(CCN(CCCCC2CCCCC2)C(=O)NC2CCCCC2)cc1)C(=O)O [GW7647] | did not inhibit |

Target: USP7 (Homo sapiens, UniProt Q93009)
Sequence (Q93009 whole entry): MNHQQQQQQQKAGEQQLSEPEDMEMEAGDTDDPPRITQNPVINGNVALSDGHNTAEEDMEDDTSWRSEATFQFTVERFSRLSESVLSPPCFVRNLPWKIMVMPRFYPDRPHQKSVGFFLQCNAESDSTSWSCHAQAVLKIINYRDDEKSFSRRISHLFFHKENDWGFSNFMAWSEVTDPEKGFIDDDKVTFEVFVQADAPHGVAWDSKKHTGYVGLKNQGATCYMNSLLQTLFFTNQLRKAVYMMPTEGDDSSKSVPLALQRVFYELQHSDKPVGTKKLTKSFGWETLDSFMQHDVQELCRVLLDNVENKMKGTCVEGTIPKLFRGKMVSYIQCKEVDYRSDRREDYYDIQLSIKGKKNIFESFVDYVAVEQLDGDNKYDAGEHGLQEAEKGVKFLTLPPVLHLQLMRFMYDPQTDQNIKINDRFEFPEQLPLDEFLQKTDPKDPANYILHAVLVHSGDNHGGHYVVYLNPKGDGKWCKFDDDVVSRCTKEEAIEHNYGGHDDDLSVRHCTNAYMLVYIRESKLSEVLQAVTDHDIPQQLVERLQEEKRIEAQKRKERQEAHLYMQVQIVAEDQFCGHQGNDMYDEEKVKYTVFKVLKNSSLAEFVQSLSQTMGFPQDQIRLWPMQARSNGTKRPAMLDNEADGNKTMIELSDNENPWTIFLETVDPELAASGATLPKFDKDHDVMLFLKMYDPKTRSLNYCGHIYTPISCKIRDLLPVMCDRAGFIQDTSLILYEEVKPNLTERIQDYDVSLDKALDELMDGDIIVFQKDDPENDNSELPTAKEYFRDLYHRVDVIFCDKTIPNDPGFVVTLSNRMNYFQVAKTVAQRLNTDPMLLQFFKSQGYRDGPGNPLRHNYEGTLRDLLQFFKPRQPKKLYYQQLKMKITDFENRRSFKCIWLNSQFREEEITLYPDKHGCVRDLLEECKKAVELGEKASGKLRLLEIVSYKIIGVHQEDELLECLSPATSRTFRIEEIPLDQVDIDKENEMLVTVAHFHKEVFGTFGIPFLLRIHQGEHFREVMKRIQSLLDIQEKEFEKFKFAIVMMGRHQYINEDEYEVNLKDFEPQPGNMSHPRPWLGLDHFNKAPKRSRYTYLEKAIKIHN
Assay: K63-linked diubiquitin cleavage assay, USP7
Details: not given

| Structure (SMILES) | IC50 [µM] |
| --- | --- |
| OCCN1CCN(CCC=C2c3ccccc3Sc3ccc(C(F)(F)F)cc32)CC1 [Flupenthixol, flupenthixol] | 13 ± 1 |
| O=c1[nH]c2ccccc2n1C1CCN(CCCC(c2ccc(F)cc2)c2ccc(F)cc2)CC1 [Pimozide, pimozide] | 47 ± 1 |
| CN1CCN(CCCN2c3ccccc3Sc3ccc(C(F)(F)F)cc32)CC1 [Trifluoperazine, trifluoperazine] | 9 ± 1 |
| CC(C)(Sc1ccc(CCN(CCCCC2CCCCC2)C(=O)NC2CCCCC2)cc1)C(=O)O [GW7647] | 44 ± 2 |

Same assay, conditions: K63-linked diubiquitin substrate

| Structure (SMILES) | IC50 for USP7, fold higher than that for USP1/UAF1 [fold] |
| --- | --- |
| O=c1[nH]c2ccccc2n1C1CCN(CCCC(c2ccc(F)cc2)c2ccc(F)cc2)CC1 [Pimozide, pimozide] | 24 |
| CC(C)(Sc1ccc(CCN(CCCCC2CCCCC2)C(=O)NC2CCCCC2)cc1)C(=O)O [GW7647] | 9 |
